From patent US9249115B2, “N,N1 substituted piperazines having combined antiaggregant, anticoagulant and vasodilatory activity, and method for producing same” (Vertex Closed Joint Stock Company, priority 2011, dated 2016)

Columns and labels:
[1] = system: ADP-induced thrombocyte aggregation; test: ADP-induced thrombocyte aggregation, donor human thrombocyte enriched plasm; type: cell-based; conditions: ADP inductor; for MA, %: human thrombocyte plasm
Method: (§1) The study of antiaggregant and anticoagulant properties of N,N′-substituted piperazines on the sample of donor human blood. The blood was collected by donor ulnar vein punction with dry sharp needle without syringe. The administration of drugs that influence on thrombocyte function was cancelled in 7÷10 days before the experiment.
(§2) In graduated plastic centrifuge tube 1 ml of 3.8% basic trisodium citrate solution with pH=7.4 was placed. The ulnar vein was punctuated, the freely effluent blood was collected up to 10 ml mark, the mixture was instantly stirred to prevent air bubbles appearance. The collected and stabilized blood was split in two 5 ml portions in two tubes.
(§3) To obtain thrombocyte enriched plasm the stabilized blood was spinned at 1000 rpm (150 g) for 8 min at room temperature. The repeated spinning of the blood at 3200 rpm (2300 g) for 20 min at 22° C. yielded thrombocyte depleted plasm.
(§4) The study of anticoagulant activity was done within 2 h after thrombocyte enriched plasm obtaining. The plasm was normalized to achieve thrombocyte concentration of 200-250×10^9/L by addition of thrombocyte-free plasm. The concentration of thrombocytes was measured on SOLAR AR 2110 analyzer.
(§5) Antiaggregant properties of N,N′-substituted piperazines were evaluated by their influence on thrombocyte aggregation in tests with ADP-, collagen- and ristocetin-induced aggregation. To dissolve N,N′-substituted piperazines and to dilute reagents Tris-HCl-buffer with pH=7.4 was used.
(§6) As the general characteristic of thrombocyte aggregation activity the maximum amplitude (MA) of aggregation was taken on. That is the peak value of transmittance coefficient of the sample after aggregation agent introduction expressed in % relative to the transmittance of thrombocyte-free plasm. The response was registered on ascending linear segment of aggregation curve for 16 s.
(§7) The measurements were done using 4-channel CHRONO-LOG 490-4D analyzer (CHRONO-LOG, USA). The temperature in the cell was 37° C., the spinning speed of magnetic stirrer was 1200 rpm.
(§8) In a cuvette 0.5 ml of N,N′-substituted piperazine solution was placed, then 0.4 ml of normalized thrombocyte plasm was added. The mixture was stirred and incubated at 37° C. for 5 min. The cuvette was placed in aggregometer, then 0.05 ml of aggregation inductor solution was added (ADP or collagen or ristocetin). Thrombocyte aggregation was measured for 3 min.
ADP-induced reversible thrombocyte aggregation test utilized CHRONO-PAR ADP reagent (CHRONO-LOG, USA) with 10 mol concentration. Primary (reversible) thrombocyte aggregation was evaluated by the response on addition of ADP threshold dose (ADP concentration is 1 mol) to plasm.

[2] = system: Collagen-induced thrombocyte aggregation; test: Collagen-induced thrombocyte aggregation, donor human thrombocyte enriched plasm; type: cell-based; conditions: collagen inductor; for MA, %: human thrombocyte plasm; for inhibition at 500 µM / inhibition at 1250 µM / inhibition at 2500 µM / inhibition at 5000 µM: Homo sapiens, read-out: (MA0-MAx): MA0 * 100%
Method: as §1, §2, §3, §4, §5, §6, §7, §8
In collagen-induced thrombocyte aggregation test CHRONO-PAR COLLAGEN reagent (CHRONO-LOG, USA) was diluted with buffer solution until collagen concentration reached 10 µg/ml.

[3] = system: thrombocyte depleted plasm coagulation; test: Activated partial thromboplastin time (APTT), anticoagulant properties; type: biochemical, human; conditions: for APTT: thrombocyte depleted plasm
Method: as §1, §2, §3
To study anticoagulant properties of N,N′-substituted piperazines activated partial thromboplastin time (APTT) was measured. That is the ability of N,N′-substituted piperazines to increase thrombocyte depleted plasm coagulation time compared to the ability of control sample. The set of reagents for APTT determination (Russian Scientific Research Institute of Hematology and Transfusiology Ministry of Health of Russian Federation by Technical Regulation 9398-214-01966456-99) and COAG-A-MATE® XM coagulometer (ORGANON TEKNIKA, USA) were used.
The solutions of N,N′-substituted piperazines were mixed with thrombocyte depleted plasm at 1:1 ratio, then 0.1 ml of APTT reagent was added, the mixture was incubated in the cuvette for 5 min at 37° C., then 0.1 ml of 0.277% CaCl2 solution was added. The time of coagulation (in seconds) was measured.

[4] = Homo sapiens, 1.25 mmol/L, read-out: (MA0-MAx): MA0 * 100%
[5] = Homo sapiens, 2.50 mmol/L, read-out: (MA0-MAx): MA0 * 100%
[6] = Homo sapiens, 5.0 mmol/L, read-out: (MA0-MAx): MA0 * 100%

For `COc1cc(CN2CCN(C(=N)N)CC2)ccc1OCC(C)C.Cl` [Example 12, 4-(4-(2-methylpropyloxy)-3-methoxybenzyl)piperazine-1-carboximidamide hydrochloride], the “MA, %” value ([1]; 0.2 mmol/L) was 14.1 ± 2.0%, the “MA, %” value ([1]; 0.5 mmol/L) was 11.2 ± 3.3% and the “MA, %” value ([1]; 1.25 mmol/L) was 5.1 ± 2.2%. For the same compound, the “MA, %” value ([1]; 2.50 mmol/L) was 1.7 ± 0.3%, the inhibition at 200 µM ([1]; Homo sapiens, 0.2 mmol/L, read-out: (MA0-MAx): MA0 * 100%) was 10.2% and the inhibition at 500 µM ([1]; Homo sapiens, 0.5 mmol/L, read-out: (MA0-MAx): MA0 * 100%) was 28.7%. The inhibition at 1250 µM [1, 4] was 67.5%, the inhibition at 2500 µM [1, 5] was 89.2% and the “MA, %” value ([2]; 0.5 mmol/L) was 71.9 ± 5.1%. For the same compound, the “MA, %” value ([2]; 1.25 mmol/L) was 63.1 ± 9.1%, the “MA, %” value ([2]; 2.5 mmol/L) was 55.4 ± 9.0% and the “MA, %” value ([2]; 5.0 mmol/L) was 51.0 ± 7.1%. It also gave an inhibition at 500 µM ([2]; 0.5 mmol/L) of 6.5%, an inhibition at 1250 µM ([2]; 1.25 mmol/L) of 16.8% and an inhibition at 2500 µM ([2]; 2.5 mmol/L) of 28%. The inhibition at 5000 µM ([2]; 5.0 mmol/L) was 35%, the “(APTTx-APTT0): APTT0 * 100%” value ([3]; 1.7 mmol/L) was 9.4% and the “APTT” value ([3]; 1.7 mmol/L) was 50.1 ± 4.0 s. For the same compound, the “(APTTx-APTT0): APTT0 * 100%” value ([3]; 2.5 mmol/L) was 38.0%, the “APTT” value ([3]; 2.5 mmol/L) was 63.2 ± 5.1 s and the “(APTTx-APTT0): APTT0 * 100%” value ([3]; 4.1 mmol/L) was 53.3%. The “APTT” value ([3]; 4.1 mmol/L) was 70.2 ± 3.2 s, the “(APTTx-APTT0): APTT0 * 100%” value ([3]; 8.3 mmol/L) was 205.7% and the “APTT” value ([3]; 8.3 mmol/L) was 140.0 ± 4.7 s.

For `COc1ccc(CN2CCN(C(=N)NC(=N)N)CC2)c(OC)c1OC.Cl` [Example 4, N-carbamidoyl-4-(2,3,4-trimethoxybenzyl)piperazine-1-carboximidamide hydrochloride], the “MA, %” value ([1]; 1.25 mmol/L) was 10.6 ± 2.0%, the “MA, %” value ([1]; 2.50 mmol/L) was 5.7 ± 1.1% and the “MA, %” value ([1]; 5.0 mmol/L) was 1.7 ± 0.5%. The inhibition at 1250 µM [1, 4] was 42.1%, the inhibition at 2500 µM [1, 5] was 68.9% and the inhibition at 5000 µM [1, 6] was 90.7%. The “MA, %” value ([2]; 1.25 mmol/L) was 59.0 ± 5.9%, the “MA, %” value ([2]; 2.5 mmol/L) was 52.2 ± 7.9% and the “MA, %” value ([2]; 5.0 mmol/L) was 26.2 ± 3.5%. It also gave an inhibition at 1250 µM ([2]; 1.25 mmol/L) of 22.1%, an inhibition at 2500 µM ([2]; 2.5 mmol/L) of 31% and an inhibition at 5000 µM ([2]; 5.0 mmol/L) of 65.4%.

For `COc1ccc(C(=O)N2CCN(C(=N)NC(=N)N)CC2)c(OC)c1OC.Cl` [Example 2, N-carbamidoyl-4-(2,3,4-trimethoxybenzoyl)piperazine-1-carboximidamide hydrochloride], the “MA, %” value ([1]; 1.25 mmol/L) was 15.0 ± 1.8%, the “MA, %” value ([1]; 2.50 mmol/L) was 8.7 ± 2.2% and the “MA, %” value ([1]; 5.0 mmol/L) was 3.1 ± 0.8%. The inhibition at 1250 µM [1, 4] was 21.1%, the inhibition at 2500 µM [1, 5] was 55% and the inhibition at 5000 µM [1, 6] was 84.2%. The “MA, %” value ([2]; 0.5 mmol/L) was 73.0 ± 7.3%, the “MA, %” value ([2]; 1.25 mmol/L) was 65.10 ± 1.8% and the “MA, %” value ([2]; 2.5 mmol/L) was 58.7 ± 2.9%. The “MA, %” value ([2]; 5.0 mmol/L) was 24.1 ± 0.8%, the inhibition at 500 µM ([2]; 0.5 mmol/L) was 7.9% and the inhibition at 1250 µM ([2]; 1.25 mmol/L) was 17.9%. The inhibition at 2500 µM ([2]; 2.5 mmol/L) was 26% and the inhibition at 5000 µM ([2]; 5.0 mmol/L) was 69.6%.
